For 2 molecules, mortality, Activity and LC50 results are on record in ChEMBL document CHEMBL3046088, “Systemic effects of thiamethoxam and chlorantraniliprole seed treatments on adult Lissorhoptrus oryzophilus (Coleoptera: Curculionidae) in rice” (2013).

Each structure is given as a SMILES string. The source made the active and inactive calls. No cut-off for these calls is given here.

Assay [1] concerns Lissorhoptrus oryzophilus. The assay is described as follows: Insecticidal activity against Lissorhoptrus oryzophilus in rice plants assessed as mortality at 100 ug treated as seed measured after 72 hr of feeding (reference value: 15 +/- 2.9%). Type of assay: functional.
For assay [2], the system named is Lissorhoptrus oryzophilus. The assay is described as follows: Insecticidal activity against Lissorhoptrus oryzophilus in rice plants assessed as mortality at 25 ug treated as seed measured after 72 hr of feeding (reference value: 15 +/- 2.9%). Format: functional.
The test system of assay [3] is Lissorhoptrus oryzophilus. The assay is described as follows: Insecticidal activity against Lissorhoptrus oryzophilus in rice plants assessed as leaf consumption rate per day at 100 ug treated as seed measured after 72 hr of feeding (reference value: 8.3 +/- 0.7 mm'2 /day). Format: functional.
Assay [4] deals with Lissorhoptrus oryzophilus. The assay is described as follows: Insecticidal activity against Lissorhoptrus oryzophilus in rice plants assessed as leaf consumption rate per day at 50 ug treated as seed measured after 72 hr of feeding (reference value: 8.3 +/- 0.7 mm'2 /day). Type of assay: functional.
The test system of assay [5] is Lissorhoptrus oryzophilus. The assay is described as follows: Insecticidal activity against Lissorhoptrus oryzophilus in rice plants assessed as leaf consumption rate per day at 25 ug treated as seed measured after 72 hr of feeding (reference value: 8.3 +/- 0.7 mm'2 /day). Type of assay: functional.
The subject of assay [6] is Lissorhoptrus oryzophilus. Kind of assay: Insecticidal activity against Lissorhoptrus oryzophilus in rice plants assessed as mortality at 10 ug treated as seed measured after 72 hr of feeding (reference value: 15 +/- 2.9%). Type of assay: functional.
Assay [7] deals with Lissorhoptrus oryzophilus. The assay is described as follows: Insecticidal activity against Lissorhoptrus oryzophilus in rice plants assessed as mortality at 50 ug treated as seed measured after 72 hr of feeding (reference value: 15 +/- 2.9%). Format: functional.
Assay [8] relates to Lissorhoptrus oryzophilus. Kind of assay: Insecticidal activity against Lissorhoptrus oryzophilus in rice plants assessed as leaf consumption rate per day at 10 ug treated as seed measured after 72 hr of feeding (reference value: 8.3 +/- 0.7 mm'2 /day). Format: functional.
Assay [9] concerns Lissorhoptrus oryzophilus. Kind of assay: Insecticidal activity against Lissorhoptrus oryzophilus in rice plants assessed as leaf consumption rate per day at 7 ug treated as seed measured after 72 hr of feeding (reference value: 8.3 +/- 0.5 mm'2 /day). Format: functional.
Assay [10] relates to Lissorhoptrus oryzophilus. Kind of assay: Insecticidal activity against Lissorhoptrus oryzophilus in rice plants assessed as leaf consumption rate per day at 28 ug treated as seed measured after 72 hr of feeding (reference value: 8.3 +/- 0.5 mm'2 /day). Type of assay: functional.
Assay [11] concerns Lissorhoptrus oryzophilus. The assay is described as follows: Insecticidal activity against Lissorhoptrus oryzophilus in two to three-leaf stage rice plants assessed as mortality treated as seed measured after 72 hr of feeding. Format: functional.
The subject of assay [12] is Lissorhoptrus oryzophilus. The assay is described as follows: Insecticidal activity against Lissorhoptrus oryzophilus in rice plants assessed as leaf consumption rate per day at 21 ug treated as seed measured after 72 hr of feeding (reference value: 8.3 +/- 0.5 mm'2 /day). Type of assay: functional.
In assay [13] the test system is Lissorhoptrus oryzophilus. Kind of assay: Insecticidal activity against Lissorhoptrus oryzophilus in three to four-leaf stage rice plants assessed as mortality treated as seed measured after 72 hr of feeding. Type of assay: functional.
Assay [14] relates to Lissorhoptrus oryzophilus. Kind of assay: Insecticidal activity against Lissorhoptrus oryzophilus in rice plants assessed as leaf consumption rate per day at 14 ug treated as seed measured after 72 hr of feeding (reference value: 8.3 +/- 0.5 mm'2 /day). Type of assay: functional.
Assay [15] relates to Lissorhoptrus oryzophilus. Kind of assay: Insecticidal activity against Lissorhoptrus oryzophilus in rice plants assessed as mortality at 35 ug treated as seed measured after 72 hr of feeding (reference value: 3.8 +/- 1.8%). Type of assay: functional.
For assay [16], the system named is Lissorhoptrus oryzophilus. The assay is described as follows: Insecticidal activity against Lissorhoptrus oryzophilus in rice plants assessed as mortality at 21 ug treated as seed measured after 72 hr of feeding (reference value: 3.8 +/- 1.8%). Type of assay: functional.
Assay [17] relates to Lissorhoptrus oryzophilus. The assay is described as follows: Insecticidal activity against Lissorhoptrus oryzophilus in rice plants assessed as mortality at 28 ug treated as seed measured after 72 hr of feeding (reference value: 3.8 +/- 1.8%). Format: functional.
Assay [18] deals with Lissorhoptrus oryzophilus. Kind of assay: Insecticidal activity against Lissorhoptrus oryzophilus in rice plants assessed as mortality at 14 ug treated as seed measured after 72 hr of feeding (reference value: 3.8 +/- 1.8%). Format: functional.
The test system of assay [19] is Lissorhoptrus oryzophilus. Kind of assay: Insecticidal activity against Lissorhoptrus oryzophilus in rice plants assessed as leaf consumption rate per day at 35 ug treated as seed measured after 72 hr of feeding (reference value: 8.3 +/- 0.5 mm'2 /day). Format: functional.
Assay [20] relates to Lissorhoptrus oryzophilus. Kind of assay: Insecticidal activity against Lissorhoptrus oryzophilus in rice plants assessed as mortality at 7 ug treated as seed measured after 72 hr of feeding (reference value: 3.8 +/- 1.8%). Type of assay: functional.
In assay [21] the test system is Lissorhoptrus oryzophilus. The assay is described as follows: Insecticidal activity against Lissorhoptrus oryzophilus in five to six-leaf stage rice plants assessed as mortality treated as seed measured after 72 hr of feeding. Type of assay: functional, organism-based.

The term mortality denotes the percentage killed. Turning to `CNC(=O)c1cc(Cl)cc(C)c1NC(=O)c1cc(Br)nn1-c1ncccc1Cl` [CHLORANTRANILIPROLE], the mortality in assay [1] is 16.3%; in assay [2], 20%; in assay [6] it was 10%; in assay [7], 12.5%. In addition, the Activity in [3] is on record as 9.4 mm2; in [4], 7.3 mm2; in assay [5], 6.7 mm2; in assay [8], 8.3 mm2.

`CN1COCN(Cc2cnc(Cl)s2)/C1=N\[N+](=O)[O-]` [THIAMETHOXAM]: the Activity in assay [9] was determined as 6.9 mm2; in assay [10], 5.2 mm2; in [12] it was 5.5 mm2; in assay [14] it was 6.6 mm2; in assay [19], 6.4 mm2. The LC50 in [11] is given as 447 pg; in [13], 142 pg. Besides, the mortality in assay [15] is on record as 45%; in assay [16], 28.8%; in assay [17], 42.5%; in [18] it was 21.3%; in [20] it was 22.5%. The outcome in assay [21] was Active.
